# B1: hASIP: Endogenous antagonist of the hMCRs, agouti signaling protein (protein, UniProt P42127 23-132, looked up)
# Agouti-signaling protein: HLPPEEKLRDDRSLRSNSSVNLLDVPSVSIVALNKKSKQIGRKAAEKKRSSKKEASMKKVVRPRTPLSAPCVATRNSCKPPAPACCDPCASCQCRFFRSACSCRVLSLNC
# Legend:
# hMC1R [1] = target: T1, hMC1R (Homo sapiens, UniProt Q01726); experiment: Adenylate cyclase; format: cell-based; conditions: for functional class at hMC1R: class by maximal cAMP level relative to MTII; for fold drop in potency: hMC1R, Ac-NDP-γ-MSH-NH2 series, comparator implied: peptide 11
# T1 sequence (Q01726 whole entry): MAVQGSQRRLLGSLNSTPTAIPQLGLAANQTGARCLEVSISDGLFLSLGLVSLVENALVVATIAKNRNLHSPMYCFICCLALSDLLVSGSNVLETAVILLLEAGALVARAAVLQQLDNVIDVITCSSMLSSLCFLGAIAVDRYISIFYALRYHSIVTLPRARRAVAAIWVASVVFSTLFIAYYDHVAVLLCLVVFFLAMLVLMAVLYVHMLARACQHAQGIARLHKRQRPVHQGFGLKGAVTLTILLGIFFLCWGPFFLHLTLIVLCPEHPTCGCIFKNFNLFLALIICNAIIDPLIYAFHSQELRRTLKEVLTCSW
# hMC1R [2] = target: T1, hMC1R; experiment: Competition binding on whole HEK293 cells, 125I-[Nle4,DPhe7]-α-MSH; conditions: Ac-NDP-γ-MSH-NH2 series, comparator implied: peptide 11
# hMC4R [3] = target: T2, hMC4R (Homo sapiens, UniProt P32245); experiment: as above; conditions: for IC50: read-out: hMC4R IC50; for IC50 / hMC4R IC50: concentration of peptide at 50% specific binding, N=4, NB: No Binding at 10^-5 M
# T2 sequence (P32245 whole entry): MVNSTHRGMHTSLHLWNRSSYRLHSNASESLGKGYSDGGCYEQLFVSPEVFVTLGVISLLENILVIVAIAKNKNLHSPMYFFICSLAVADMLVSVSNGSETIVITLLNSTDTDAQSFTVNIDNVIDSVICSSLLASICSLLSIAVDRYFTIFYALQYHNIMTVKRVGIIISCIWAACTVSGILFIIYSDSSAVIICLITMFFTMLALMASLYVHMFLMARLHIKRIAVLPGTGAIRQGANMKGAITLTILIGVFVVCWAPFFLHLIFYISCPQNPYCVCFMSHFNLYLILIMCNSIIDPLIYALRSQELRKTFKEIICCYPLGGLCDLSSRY
# [4] = target: human melanocortin 1 receptor (human) (UniProt Q01726)
# human melanocortin 1 receptor (human), sequence (Q01726 whole entry): as the sequence (Q01726 whole entry) above
# [5] = target: human melanocortin 3 receptor (human) (UniProt P41968)
# human melanocortin 3 receptor (human), sequence (P41968 whole entry): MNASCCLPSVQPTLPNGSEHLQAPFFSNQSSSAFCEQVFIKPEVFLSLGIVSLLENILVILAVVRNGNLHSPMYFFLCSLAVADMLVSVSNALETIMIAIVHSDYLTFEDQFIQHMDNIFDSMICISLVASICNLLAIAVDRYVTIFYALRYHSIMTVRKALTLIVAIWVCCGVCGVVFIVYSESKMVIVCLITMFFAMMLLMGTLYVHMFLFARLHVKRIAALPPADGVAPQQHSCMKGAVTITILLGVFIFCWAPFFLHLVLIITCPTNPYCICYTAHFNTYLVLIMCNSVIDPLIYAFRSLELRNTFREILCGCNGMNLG
# [6] = target: human melanocortin 5 receptor (human) (UniProt P33032)
# human melanocortin 5 receptor (human), sequence (P33032 whole entry): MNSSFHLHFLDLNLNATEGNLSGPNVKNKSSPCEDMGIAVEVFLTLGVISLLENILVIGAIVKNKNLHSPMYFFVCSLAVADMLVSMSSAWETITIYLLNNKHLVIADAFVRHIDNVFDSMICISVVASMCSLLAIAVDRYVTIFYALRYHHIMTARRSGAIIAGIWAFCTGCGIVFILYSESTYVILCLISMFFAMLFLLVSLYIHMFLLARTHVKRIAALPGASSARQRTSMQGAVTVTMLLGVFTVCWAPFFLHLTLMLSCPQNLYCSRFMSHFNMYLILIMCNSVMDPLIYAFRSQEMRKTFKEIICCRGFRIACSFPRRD
# [7] = target: human melanocortin 4 receptor (human) (UniProt P32245)
# human melanocortin 4 receptor (human), sequence (P32245 whole entry): as the sequence (P32245 whole entry) above
# [8] = target: human melanocortin 1 receptor (human) (UniProt Q01726); experiment: radioligand binding
# hMC3R = hMC3R (Homo sapiens, UniProt P41968); experiment: Competition binding on whole HEK293 cells, 125I-[Nle4,DPhe7]-α-MSH; conditions: concentration of peptide at 50% specific binding, N=4; NB: No Binding at 10^-5 M
# hMC3R, sequence (P41968 whole entry): as the sequence (P41968 whole entry) above
# hMC4R [9] = target: T2, hMC4R; experiment: Adenylate cyclase; format: cell-based; conditions: class by maximal cAMP level relative to MTII
# hMC4R [10] = target: T2, hMC4R; conditions: cited from earlier work
molecule,measurement,setting,value
CCCC[C@H](NC(C)=O)C(=O)N[C@H]1CC(=O)NCCCC[C@@H](C(N)=O)NC(=O)[C@H](Cc2c[nH]c3ccccc23)NC(=O)[C@@H]2C[C@H](NC(=N)N)CN2C(=O)[C@@H](Cc2ccc3ccccc3c2)NC(=O)[C@H](Cc2c[nH]cn2)NC1=O [Peptide 8],functional class at hMC1R,hMC1R [1],full agonist (80%-100% level of MT II)
CCCC[C@H](NC(C)=O)C(=O)N[C@H]1CC(=O)NCCCC[C@@H](C(N)=O)NC(=O)[C@H](Cc2c[nH]c3ccccc23)NC(=O)[C@@H]2CCCN2C(=O)[C@@H](Cc2ccc3ccccc3c2)NC(=O)[C@H](Cc2c[nH]cn2)NC1=O [Peptide 6],functional class at hMC1R,hMC1R [1],partial agonist (triggers a maximal cAMP level that is 20%-80% of MTII triggered maximal cAMP response)
CCCC[C@H](NC(=O)[C@@H](NC(=O)[C@H](Cc1ccc(O)cc1)NC(C)=O)C(C)C)C(=O)NCC(=O)N[C@@H](Cc1cnc[nH]1)C(=O)N[C@H](Cc1ccccc1)C(=O)N1C[C@H](NC(=N)N)C[C@H]1C(=O)N[C@@H](Cc1c[nH]c2ccccc12)C(=O)N[C@@H](CC(=O)O)C(=O)N[C@@H](CCCNC(=N)N)C(=O)N[C@@H](Cc1ccccc1)C(=O)NCC(N)=O [Peptide 12],fold drop in binding affinity,hMC1R [2],4-5 fold
same,functional class at hMC1R,hMC1R [1],full agonist (80%-100% level of MT II)
same,fold drop in potency,hMC1R [1],more than 11 fold
same,IC50,hMC4R [3],> 10000 nM
peptide 10 (SHU9119 with His6 replaced by 4-guanidinyl-Pro),"cAMP accumulation in receptor-transfected HEK293 cells, EC50",[4],1700 nM
same,"cAMP accumulation, %max of MTII",[4],90%
same,"cAMP accumulation, %max of MTII (EC50 cell also prints 0)",[5],0%
same,"cAMP accumulation in receptor-transfected HEK293 cells, EC50",[6],85 nM
same,"cAMP accumulation, %max of MTII",[6],52%
same,"cAMP accumulation in receptor-transfected HEK293 cells, EC50",[7],1400 nM
same,IC50,[8],1.2 nM
peptide 1 (MTII with Arg8 replaced by Pro),"cAMP accumulation in receptor-transfected HEK293 cells, EC50",[4],> 1000 nM
same,"cAMP accumulation, %max of MTII",[4],75%
CCCC[C@H](NC(=O)[C@@H](NC(=O)[C@H](Cc1ccc(O)cc1)NC(C)=O)C(C)C)C(=O)NCC(=O)N[C@@H](Cc1cnc[nH]1)C(=O)N[C@H](Cc1ccccc1)C(=O)N1C[C@@H](NC(=N)N)C[C@H]1C(=O)N[C@@H](Cc1c[nH]c2ccccc12)C(=O)N[C@@H](CC(=O)O)C(=O)N[C@@H](CCCNC(=N)N)C(=O)N[C@@H](Cc1ccccc1)C(=O)NCC(N)=O [Peptide 13],fold drop in binding affinity,hMC1R [2],4-5 fold
same,functional class at hMC1R,hMC1R [1],full agonist (80%-100% level of MT II)
same,fold drop in potency,hMC1R [1],more than 11 fold
same,IC50,hMC4R [3],> 10000 nM
peptide 9 (SHU9119 with His6 replaced by 4-guanidinyl-Pro),"cAMP accumulation in receptor-transfected HEK293 cells, EC50",[4],620 nM
same,"cAMP accumulation, %max of MTII",[4],25%
same,"cAMP accumulation in receptor-transfected HEK293 cells, EC50",[5],130 nM
CCCC[C@H](NC(C)=O)C(=O)N[C@H]1CC(=O)NCCCC[C@@H](C(N)=O)NC(=O)[C@H](Cc2c[nH]c3ccccc23)NC(=O)[C@H](CCCNC(=N)N)NC(=O)[C@@H](Cc2ccccc2)NC(=O)[C@@H]2C[C@@H](NC(=N)N)CN2C1=O [Peptide 4],hMC4R IC50,hMC4R [3],single-digit nanomolar range
same,hMC3R IC50,hMC3R,single-digit nanomolar range
CCCC[C@H](NC(C)=O)C(=O)N[C@H]1CC(=O)NCCCC[C@@H](C(N)=O)NC(=O)[C@H](Cc2c[nH]c3ccccc23)NC(=O)[C@@H]2CCCN2C(=O)[C@@H](Cc2ccccc2)NC(=O)[C@H](Cc2c[nH]cn2)NC1=O [Peptide 1],functional class at hMC1R,hMC1R [1],partial agonist (triggers a maximal cAMP level that is 20%-80% of MTII triggered maximal cAMP response)
CCCC[C@H](NC(=O)[C@@H](NC(=O)[C@H](Cc1ccc(O)cc1)NC(C)=O)C(C)C)C(=O)NCC(=O)N[C@@H](Cc1c[nH]cn1)C(=O)N[C@H](Cc1ccccc1)C(=O)N1CCC[C@H]1C(=O)N[C@@H](Cc1c[nH]c2ccccc12)C(=O)N[C@@H](CC(=O)O)C(=O)N[C@@H](CCCNC(=N)N)C(=O)N[C@@H](Cc1ccccc1)C(=O)NCC(N)=O [Peptide 11],functional class at hMC1R,hMC1R [1],partial agonist (triggers a maximal cAMP level that is 20%-80% of MTII triggered maximal cAMP response)
same,"binding affinity at the hMC4R, fold lower/weaker than peptide 1",hMC4R [3]; relative to control peptide 1,25 fold
same,"binding affinity at the hMC4R, fold lower than peptide 6",hMC4R [3]; relative to peptide 6,8 fold
same,functional class at hMC4R,hMC4R [9],partial agonist (triggers a maximal cAMP level that is 20%-80% of MTII triggered maximal cAMP response)
CCCC[C@H](NC(C)=O)C(=O)N[C@H]1CC(=O)NCCCC[C@@H](C(N)=O)NC(=O)[C@H](Cc2c[nH]c3ccccc23)NC(=O)[C@H](CCCNC(=N)N)NC(=O)[C@@H](Cc2ccccc2)NC(=O)[C@@H]2C[C@H](NC(=N)N)CN2C1=O [Peptide 5],hMC4R IC50,hMC4R [3],single-digit nanomolar range
same,hMC3R IC50,hMC3R,single-digit nanomolar range
B1,selectivity hMC4R/hMC3R,hMC4R [10],46 fold

# From article PMC2775485 (Journal of medicinal chemistry, 2009)
